Holding throughout (format): cell-based
Test [1] has as its system PANC-1 human pancreatic cell line. The test can be described thus: In vitro proliferation of PANC-1 cells (MTT). The conditions noted are these: 72 hours exposure, read-out: PANC-1 (IC50 μg/ml). How it is done: (§1) Swiftiapregnene was analyzed as to its effect on the proliferation of PANC-1 human pancreatic and P388 murine leukemia cell lines. P388 cells were obtained from Dr. R. Camalier, National Cancer Institute, Bethesda, Md., and PANC-1 cells were obtained from American Type Culture Collection, Rockville, Md. All cell lines were maintained in tissue culture medium (TCM; Roswell Park Memorial Institute RPMI 1640 supplemented with 100 U/mL penicillin, […] streptomycin, […] 1-glutamine, 18 mM HEPES, 0.05 mg/mL gentamicin (Life Technologies, Gaithersburg, Md.) and 10% fetal bovine serum) and cultured in plastic tissue culture flasks at 37° C. in humidified air containing 5% CO2. Stock cultures of P388 cells were subcultured 1:20 in fresh TCM every 2 to 3 days. Stock cultures of A549 cells were subcultured 1:10 every 3 to 4 days. To assess the antiproliferative effects of agents against the cells, […] cultures (96-well tissue culture plates, Nunc, Denmark) were established at 1×10^5 cells/mL in TCM or TCM containing the test agent at 0.03-5.0 μg/mL. After 48-h exposures, P388 cells were enumerated using 3-[4,5-dimethylthiazol-2-yl]-2,5-diphenyltetrazolium bromide (MTT) as described in the literature (M. C. Alley, et al., Cancer Res. 48:589, 1988). […] The results were expressed as percent inhibition compared to the negative (no drug) control. […]

The subject of test [2] is P388 murine leukemia cell line. The test can be described thus: In vitro proliferation of P388 cells (MTT). The conditions noted are these: Mus musculus, 48-h exposure, read-out: P388 (IC50 μg/ml). How it is done: as §1
For the next test, the system named is A549 human lung cells. The test can be described thus: Cell cycle progression by flow cytometry (propidium iodide). The conditions noted are these: 100 μg/ml, 24 hr. As to the method:
Cell cycle studies were initiated in order to pinpoint a specific phase within the cell cycle in which discodermolide analogs were exerting their antiproliferative effect. A549 human lung cells were used as cell cycle targets to compare the effects of discodermolide and discodermolide analogs on perturbation of the cell cycle. Cell cycle analyses were performed as follows: A549 cells were incubated at 37° C. in 5% CO2 in air in the presence or absence of varying concentrations of discodermolide or discodermolide analogs for 24 hr. Cells were harvested, fixed in ethanol, washed, and stained with 0.2 mg/mL of propidium iodide (P.I.) together with 0.1 mg/mL of RNAse A. Stained preparations were analyzed on a Coulter EPICS ELITE flow cytometer with 488 nm excitation. Fluorescence measurements and resulting DNA histograms were collected from at least 10,000 P.I. stained cells at an emission wavelength of 690 nm. Raw histogram data was further analyzed using a cell cycle analysis program (Multicycle, Phoenix Flow Systems).
Background: A flow cytometer gives signals particle by particle.

On to `C=CC1CCC2C3CC=C4CC(OC5OC(C)C(O)C(O)C5OC(C)=O)CCC4(C)C3CCC12C` (stereo not drawn) [Swiftiapregnene (I), Swiftiapregnene], for which the IC50 in test [1] was determined as 7.4 µg/mL; in test [2], 21 µg/mL. Moreover, the “effect on cell cycle (sub-G1 population)” value in the test on A549 human lung cells was “increase in the sub-G1 population”.

Source of the values: patent publication US6784160B1, “Biologically active pregnene compounds” (Harbor Branch Oceanographic Institution, Inc., priority 2002, dated 2004).
